Experimental data from patent publication US8932597B2 (priority 2008, dated 2015).

Experiments:
[1] = tested on: anti-M2 human monoclonal antibody Z3G1; type: binding
HuM2e antibody 23K12 = type: binding, human

| Substance | Signal (peptides that bind to Z3G1) [1] | Signal (peptides that bind to 23K21 and 8I10) (HuM2e antibody 23K12) | Signal (peptides that show specific binding to Z3G1) [1] |
| --- | --- | --- | --- |
| 557 (MSCLTEVGCSLLTEV; epitope peptide) [compound 557] | 2506 | 899 | – |
| 654 (SLLTEVETPIRYEWGCRCNDSSD; epitope peptide) [compound 654] | – | 755 | 2202 |
| 312 (TLLTEVETPIRNEWGCRCNDSSD; epitope peptide) [compound 312] | – | 1855 | 2510 |
| 420 (SLLTEVETPIRNEWGCRCNDSCD; epitope peptide) [compound 420] | 2269 | 725 | – |
| 668 (SLLTEVETPIRNEWGYRCNDSSD; epitope peptide) [compound 668] | – | 739 | 2410 |
| 565 (SLLTEVETPIRVEWGCRCNDSSD; epitope peptide) [compound 565] | – | 884 | 2300 |
| 641 (SLLTEVETPIRNELGCRCNDSSD; epitope peptide) [compound 641] | – | 765 | 2436 |
| 511 (SLLCEVGCSLLTEV; epitope peptide) [compound 511] | – | 1044 | 2562 |
| 501 (SLLTEVETPIRNEWGCCCNDSSD; epitope peptide) [compound 501] | – | 1065 | 2515 |
| 434 (SLLTEVETPIRNEWGCRCNDSYD; epitope peptide) [compound 434] | 2479 | 862 | – |
| 432 (SLLTEVETPIRNEWGCRCNDSVD; epitope peptide) [compound 432] | 2232 | 728 | – |
| 415 (SLLTEVETPIRNEWGCRCNDRSD; epitope peptide) [compound 415] | 2502 | 860 | – |
| 644 (SLLTEVETPIRNEWGVRCNDSSD; epitope peptide) [compound 644] | – | 764 | 2444 |
| 353 (SLLTEVGCSLLTEC; epitope peptide) [compound 353] | – | 1556 | 2380 |
| 520 (VLLTEVETPIRNEWGCRCNDSSD; epitope peptide) [compound 520] | – | 1014 | 1758 |
| 287 (MSLLTEVGMSLLTEV; epitope peptide) [compound 287] | 2878 | 2267 | – |
| 616 (SLLTEVETPIRNPWGCRCNDSSD; epitope peptide) [compound 616] | – | 808 | 2288 |
| 296 (MSLLTEVGMCLLTEV; epitope peptide) [compound 296] | 2809 | 2023 | – |
| 650 (SLLTEVETPVRNEWGCRCNDSSD; epitope peptide) [compound 650] | – | 758 | 2331 |
| 453 (SLLTEVETPIRNEAGCRCNDSSD; epitope peptide) [compound 453] | – | 1311 | 2383 |
| 694 (SLLTEVETPIRNEWGCRCNESSD; epitope peptide) [compound 694] | 2282 | 720 | – |

| Substance | Signal (peptides that bind to Z3G1) [1] | Signal (peptides that bind to 23K21 and 8I10) (HuM2e antibody 23K12) | Signal (peptides that show specific binding to Z3G1) [1] |
| --- | --- | --- | --- |
| 438 (SLLTEVETPIRN; epitope peptide) [compound 438] | 2130 | 751 | – |
| 667 (SLLTEVETPIRNEWGIRCNDSSD; epitope peptide) [compound 667] | – | 739 | 2211 |
| 575 (SLLTEVRTPIRNEWGCRCNDSSD; epitope peptide) [compound 575] | – | 866 | 1024 |
| 678 (SLLTEVETPIRSEWGCRCNDSSD; epitope peptide) [compound 678] | – | 730 | 2322 |
| 412 (SLLTEVETPIRNEWGCRCNDNSD; epitope peptide) [compound 412] | 2389 | 708 | – |
| 687 (SLLTEVETPCRNEWGCRCNDSSD; epitope peptide) [compound 687] | – | 724 | 2050 |
| 653 (SLLTEVETIIRNEWGCRCNDSSD; epitope peptide) [compound 653] | – | 756 | 2096 |
| 628 (SLLTEVETPIRNEWGCRCMDSSD; epitope peptide) [compound 628] | 2470 | 786 | – |
| 482 (CLCTCVGSLLTEV; epitope peptide) [compound 482] | – | 1178 | 1953 |
| 292 (CSLLTEVGSLLTEC; epitope peptide) [compound 292] | – | 2094 | 2213 |
| 226 (CTEVETPIRNEWGSRSCSLLTEVETC; epitope peptide) [compound 226] | – | 891 | 2140 |
| 652 (SLLTEVEEPIRNEWGCRCNDSSD; epitope peptide) [compound 652] | – | 757 | 2362 |
| 612 (SLLTEVETPIRNEWGCRCIDSSD; epitope peptide) [compound 612] | 2450 | 812 | – |
| 386 (SLLTEVETPIRNEVGCRCNDSSD; epitope peptide) [compound 386] | – | 1371 | 2411 |
| 572 (SLLTEVETPIRNEKGCRCNDSSD; epitope peptide) [compound 572] | – | 868 | 2580 |
| 215 (CSLLTEVETCLTEVETPIRNEWGSRC; epitope peptide) [compound 215] | – | 958 | 2328 |
| 555 (SLLTEVETPIRNEWGCRCWDSSD; epitope peptide) [compound 555] | 2462 | 901 | – |
| 551 (SLLTEVATPIRNEWGCRCNDSSD; epitope peptide) [compound 551] | – | 914 | 2093 |
| 428 (SLLTEVETPIRNEWGCRCNDSPD; epitope peptide) [compound 428] | 2344 | 772 | – |
| 465 (SLLTEVETPIRNEWGCRCNKSSD; epitope peptide) [compound 465] | 2597 | 1254 | – |
